Results published in patent US9688624B2, “DP2 antagonist and uses thereof” (Brickell Biotech, Inc., priority 2010, dated 2017).
Where a name gives a salt, the structure may show the parent alone. Read-outs that look alike come from different tables or passages of the source.

Experiments:
[1] = Plasma concentrations in guinea pig DK-PGD2 leukocyte influx study; format: in vivo; conditions: Hartley; for concentration at 18.5 h: read-out: concentration of Compound 1 in plasma
Method: In the 2 hr study, intravenous DK-PGD2 (IV DK-PGD2) increased the number of peripheral blood leukocytes, mainly lymphocytes, which likely reflects recruitment from bone marrow. […] Plasma concentrations taken 2.5 hours following oral Compound 2 were 45 nM±36 and 120 nM±46 in the 10 mg/kg and 30 mg/kg dose groups, respectively.
In the 18 hr guinea pig study, a significant increase in peripheral blood leukocytes was also observed following IV DK-PGD2 challenge. […] The concentration of Compound 1 in plasma recovered 18.5 hours following oral dose was 4 nM±7, 21 nM±19 and 17 nM±10 in the 10 mg/kg, 30 mg/kg and 100 mg/kg dose groups, respectively.

[2] = Thermodynamic aqueous solubility; format: physicochemical
Method: Example 6: Thermodynamic Aqueous Solubility
Aqueous solubility was determined by suspending sufficient compound in water to give a maximum final concentration of ≧20 mg·ml-1 of the parent free-form of the compound. The suspension was equilibrated at 25° C. for 24 hours then the pH was measured. The suspension was then filtered through a glass fibre C filter into a 96 well plate unless stated otherwise. The filtrate was then diluted by a factor of 101. Quantitation was by HPLC with reference to a standard solution of approximately 0.25 mg·ml^−1 in DMSO. Different volumes of the standard, diluted and undiluted sample solutions were injected. The solubility was calculated using the peak areas determined by integration of the peak found at the same retention time as the principal peak in the standard injection.
Analysis was performed on an Agilent HP1100 series system equipped with a diode array detector and using ChemStation software vB.02.01-SR1.

[3] = test system: DK-PGD2-induced peripheral blood leukocyte influx; assay: Guinea pig IV DK-PGD2-induced peripheral blood leukocyte influx; format: in vivo; conditions: for EC50 / ED50: Cavia porcellus, Leukocyte, calculated; for EC50: iv, plasma concentration; for ED50: oral
Method: Example 19: Guinea Pig IV-DKPGD2-Induced Peripheral Blood Leukocyte to Influx
The ability of Compound 2 to inhibit leukocyte migration in vivo was assessed using intravenous injection of 13,14-dihydro-15-keto-prostaglandin D2 (DK-PGD2). Methods were adapted from those detailed Shichijo et al., 2003, Journal of Pharmacology and Experimental Therapeutics, 307:518-525. Male Hartley guinea pigs were immunized with ovalbumin (OVA) on day 0 by intraperitoneal (IP) injection of 1 ml of a 100 μg/ml solution in Imject Alum. They were then used in the DK-PGD2 procedure between days 14 and 21. Subjects were randomly assigned to receive either vehicle (0.5% methyl cellulose, 4 ml/kg, oral (PO)) or one of three to four doses of test compound. Two hours or eighteen hours after dosing, animals were anesthetized with ketamine and challenged with DK-PGD2 (1 mg/kg, IV). Thirty minutes after IV administration, blood was collected via the marginal ear vein into EDTA tubes for cell analysis. 10 μl blood was lysed in 190 μl water followed by a further 20-fold dilution in PBS. A 10 μl fraction was mixed with equal parts trypan blue and loaded on a hemocytometer. Cells were visualized at a magnification of 40× using a LabPro light microscope and totals counted and recorded. Cells are expressed as total cells×10^8 per ml of blood Inhibition of this effect is determined statistically using Graphpad prism.

CYP3A4 = CYP3A4 (Homo sapiens (Human), UniProt P08684); conditions: human hepatocytes, 10 μM
DP2 receptor = DP2 receptor (Homo sapiens (Human), UniProt Q9Y5Y4); assay: In vitro whole blood eosinophil shape change (ESC) assay, PGD2-induced; format: cell-based
Method: Example 17: In Vitro Whole Blood Esoinophil Shape Change Assay
Compound 1 was evaluated in a whole blood assay of eosinophil shape change (ESC) to determine the ability of Compound 1 to antagonize a PGD2-stimulated functional response in the context of whole blood.
Blood is drawn from consenting human volunteers in EDTA vacutainer tubes and used within 1 hr of draw. A 98 μl aliquot of blood is mixed with 2 μl of Compound 1 (in 50% DMSO) in 1.2 ml polypropylene tubes. The blood is vortexed and incubated at 37° C. for 5 minutes. 5 μl of 1 μM PGD2 in PBS is added for a final concentration of 50 nM and the tubes briefly vortexed. The reactions are incubated for exactly 5 minutes at 37° C. and then terminated by placing the tubes on ice and immediately adding 250 μl of ice-cold 1:4 diluted Cytofix (BD Biosciences). The reactions are transferred to […] polystyrene round bottom tubes and the red blood cells lysed by the addition of 3 ml ammonium chloride lysing solution (150 mM NH4C1, 10 mM KHCO3, 0.1 mM EDTA disodium salt) and incubation at room temperature for 15 minutes. The cells are pelleted by spinning at 1300 rpm for 5 minutes at 4° C. and washed once with 3 ml ice-cold PBS. The cells are resuspended in 0.2 ml of ice-cold 1:4 diluted Cytofix (BD Biosciences) and analyzed on a FACSCalibur (BD Biosciences) within 2 hours. Eosinophils were gated on the basis of autofluorescence in the FL2 channel and shape change on 500 eosinophils was assayed by forward scatter and side scatter analysis. The specific change in shape induced by PGD2 was calculated as the difference between the percentage of high forward scatter eosinophils in the presence and absence of PGD2. IC50s were determined using Graphpad Prism® analysis of drug titration curves.

[4] = water, listed as Amorphous Compound 2, sodium salt

Sequence of DP2 receptor (Q9Y5Y4 whole entry): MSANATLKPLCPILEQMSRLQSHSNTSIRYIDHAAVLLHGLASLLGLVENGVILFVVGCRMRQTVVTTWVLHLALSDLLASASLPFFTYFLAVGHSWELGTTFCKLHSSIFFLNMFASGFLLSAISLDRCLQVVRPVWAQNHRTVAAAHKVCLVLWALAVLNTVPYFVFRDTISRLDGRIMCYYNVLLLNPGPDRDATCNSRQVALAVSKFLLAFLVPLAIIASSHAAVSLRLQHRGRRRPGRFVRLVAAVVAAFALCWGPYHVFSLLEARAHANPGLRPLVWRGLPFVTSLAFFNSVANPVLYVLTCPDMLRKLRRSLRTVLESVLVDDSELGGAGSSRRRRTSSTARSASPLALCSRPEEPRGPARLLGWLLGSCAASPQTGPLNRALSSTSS

SMILES: COc1ccc(CC(=O)O)cc1Oc1ccc(NC(=O)C(C)(C)C)cc1CSC(C)(C)C [Compound 2, 2-(3-(2-((tert-butylthio)methyl)-4-(2,2-dimethyl-propionylamino)phenoxy)-4-methoxyphenyl)acetic acid, sodium salt]
- concentration at 2.5 h ([1]; 2.5 hours after oral 10 mg/kg): 45 nM
- concentration at 2.5 h ([1]; 2.5 hours after oral 30 mg/kg): 120 nM
- Solubility mg/ml Free Base equivalent ([2]; test solvent pH 1.5, 25° C., 24 hours, listed as Compound 2 Pattern 1, sodium salt): 0.0058 mg/mL
- pH of Unfiltered Saturated solution ([2]; test solvent pH 1.5, listed as Compound 2 Pattern 1, sodium salt): 2.73
- Solubility mg/ml Free Base equivalent ([2]; test solvent pH 4.0, 25° C., 24 hours, listed as Compound 2 Pattern 1, sodium salt): 0.0023 mg/mL
- pH of Unfiltered Saturated solution ([2]; test solvent pH 4.0, listed as Compound 2 Pattern 1, sodium salt): 4.67
- Solubility mg/ml Free Base equivalent ([2]; test solvent pH 5.0, 25° C., 24 hours, listed as Compound 2 Pattern 1, sodium salt): 0.04 mg/mL
- pH of Unfiltered Saturated solution ([2]; test solvent pH 5.0, listed as Compound 2 Pattern 1, sodium salt): 5.88
- Solubility mg/ml Free Base equivalent ([2]; test solvent pH 6.5, 25° C., 24 hours, listed as Compound 2 Pattern 1, sodium salt): 4.1 mg/mL
- pH of Unfiltered Saturated solution ([2]; test solvent pH 6.5, listed as Compound 2 Pattern 1, sodium salt): 7.06
- Solubility mg/ml Free Base equivalent ([2]; test solvent pH 7.4, 25° C., 24 hours, listed as Compound 2 Pattern 1, sodium salt): 18.0 mg/mL
- pH of Unfiltered Saturated solution ([2]; test solvent pH 7.4, listed as Compound 2 Pattern 1, sodium salt): 7.97
- Thermodynamic solubility in water [2, 4]: > 20000 µg/mL
- pH of unfiltered solution [2, 4]: 8.18
- % inhibition of DK-PGD2-induced peripheral blood leukocyte increase ([3]; 2 hr study, 10 mg/kg oral): 19 (±23) %
- % inhibition of DK-PGD2-induced peripheral blood leukocyte increase ([3]; 2 hr study, 30 mg/kg oral): 107 (±9) %
- % inhibition of peripheral blood leukocyte numbers ([3]; 18 hr study, 10 mg/kg oral): 29 (±14) %
- % inhibition of peripheral blood leukocyte numbers ([3]; 18 hr study, 30 mg/kg oral): 50 (±8) %
- % inhibition of peripheral blood leukocyte numbers ([3]; 18 hr study, 100 mg/kg oral): 77 (±12) %
- EC50 ([3]; 2 hr study, read-out: EC50 associated with ED50): 50 nM
- ED50 ([3]; 2 hr study): 11 mg/kg
- ED50 ([3]; 18 hr study): 63 mg/kg

SMILES: COc1ccc(CC(=O)O)cc1Oc1ccc(NC(=O)C(C)(C)C)cc1CSC(C)(C)C [Compound 1, 2-(3-(2-((tert-butylthio)methyl)-4-(2,2-dimethyl-propionylamino)phenoxy)-4-methoxyphenyl)acetic acid]
- concentration at 18.5 h ([1]; 18.5 hours after oral 10 mg/kg): 4 nM
- concentration at 18.5 h ([1]; 18.5 hours after oral 30 mg/kg): 21 nM
- concentration at 18.5 h ([1]; 18.5 hours after oral 100 mg/kg): 17 nM
- Solubility mg/ml Free Base equivalent ([2]; test solvent pH 1.5, 25° C., 24 hours, listed as Compound 1 Pattern 1): 0.013 mg/mL
- Solubility mg/ml Free Base equivalent ([2]; test solvent pH 4.0, 25° C., 24 hours, listed as Compound 1 Pattern 1): 0.0059 mg/mL
- solubility at 24 h ([2]; test solvent pH 5.0, 25 °C, pH 5, aqueous buffer, thermodynamic from solid, test solvent pH 5.0, 25° C., 24 hours, read-out: Solubility mg/ml Free Base equivalent): 0.027 mg/mL
- Solubility mg/ml Free Base equivalent ([2]; test solvent pH 6.5, 25° C., 24 hours, listed as Compound 1 Pattern 1): 0.39 mg/mL
- Solubility mg/ml Free Base equivalent ([2]; test solvent pH 7.4, 25° C., 24 hours, listed as Compound 1 Pattern 1): 7.6 mg/mL
- Thermodynamic solubility in water ([2]; water, listed as Pattern 1 of Compound 1): 6200 µg/mL
- induction of CYP3A4 (CYP3A4): not a strong inducer
- IC90 (DP2 receptor): 5.5 nM
- IC50 (DP2 receptor; average, 50 nM PGD2, read-out: IC50, PGD2-induced eosinophil shape change in human whole blood): 1.5 nM
- IC90 (DP2 receptor; same value expressed in ng/mL): 2.6 ng/mL
- IC50 (DP2 receptor; same value expressed in ng/mL, read-out: IC50, human ESC (converted)): 1.52 nM
- EC50 ([3]; 18 hr study, read-out: 18-hr EC50, inhibition of IV-DK-PGD2-induced leukocyte influx): 18 nM
